# Assay results: patent US9884851B2, “Heterocycle-bisamide inhibitors of scavenger receptor BI” (THE BROAD INSTITUTE, INC., priority 2012, dated 2018)
# Read-outs that look alike come from different tables or passages of the source.
# Experiments:
# [1] = molecular target: T1, murine SR-BI, isoform 1 (Mus musculus, UniProt Q61009); assay: DiI-HDL uptake assay (primary assay); type: cell-based; details: ldlA[mSR-BI] cells, 3 hours with compound
# T1 construct: expressed in transfected cells; host or cells: ldlA[mSR-BI], Chinese hamster ovary (CHO) cells lacking LDL receptor (Krieger Laboratory)
# T1 sequence (Q61009 1-509): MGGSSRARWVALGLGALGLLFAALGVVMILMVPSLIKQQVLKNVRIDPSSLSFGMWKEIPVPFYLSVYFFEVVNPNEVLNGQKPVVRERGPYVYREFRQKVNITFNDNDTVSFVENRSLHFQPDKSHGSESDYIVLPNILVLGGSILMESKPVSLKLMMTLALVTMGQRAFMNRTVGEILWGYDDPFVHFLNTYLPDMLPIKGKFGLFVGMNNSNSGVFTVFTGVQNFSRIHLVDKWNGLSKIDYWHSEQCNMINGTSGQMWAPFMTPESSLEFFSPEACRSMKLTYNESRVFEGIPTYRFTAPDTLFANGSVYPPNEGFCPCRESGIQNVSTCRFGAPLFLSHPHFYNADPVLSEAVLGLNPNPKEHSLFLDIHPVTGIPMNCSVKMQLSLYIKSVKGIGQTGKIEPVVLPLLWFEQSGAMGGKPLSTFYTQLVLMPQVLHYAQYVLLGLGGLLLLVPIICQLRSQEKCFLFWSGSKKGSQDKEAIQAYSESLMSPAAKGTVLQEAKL
# Protocol: The following cell lines were used in this study: • ldlA[mSR-BI] is a Chinese hamster ovary (CHO) cell line that overexpresses murine SR-BI, isoform 1 (NP_058021) and was obtained from the (Krieger Laboratory). This cell line was used for the primary assay and several secondary assays. […] Assays DiI-HDL Uptake Assay (Primary Assay AID Nos. 488896, 493194, 540354 588392, 588553, 588548, 588754, 588828, 588833)
# ldlA[mSR-BI] cells were plated into 384-well plates at 30 μl per well and incubated overnight. As a measurable surrogate for cholesterol uptake, human HDL particles were treated with the lipophilic fluorescent dye DiI and exposed to ldlA[mSR-BI] cells in lipoprotein-free media (Ham's F12/0.5% fatty acid-free Bovine Serum Albumin (BSA)/25 mM HEPES pH 7.4 plus 10 μg protein/ml DiI-HDL). Cells took up the DiI via SR-BI over 3 hours in the presence of compound. After significant uptake of the DiI, the cells became fluorescent. The level of fluorescence correlates with the amount of DiI uptake and can be measured with a standard plate reader (here a PerkinElmer EnVision plate reader was used). The uptake of lipid (represented by DiI) was inhibited by the positive control compound BLT-1 or with an excess of HDL untreated with DiI. Primary HTS data were analyzed in Genedata Screener Assay Analyzer, and were normalized against DMSO and the positive control (1 μM BLT-1). For the HTS, the average of two replicates was used to rank order activity and to choose compounds for retests. For dose studies, percent (%) activity was determined for each concentration and the concentration response curves (CRCs) were generated with Genedata Condeseo.
# To identify novel inhibitors, SR-BI-mediated lipid uptake was measured in an engineered cell line that minimized potential uptake by other mechanisms, including via the LDL receptor (1). ldlA[mSR-BI] cells overexpress murine isoform 1 and selectively take up HDL lipid at similar levels as “has been reported for cultured mouse adrenal cells, perfused organs, and liver, adrenal gland and ovary in vivo” (1). This primary cell-based assay was used in a pilot screen that identified BLTs 1 through 5. The assay was slightly modified from the original protocol of Nieland et al. to increase throughput and to ease automation procedures.
# Briefly, the plate reader was switched to a Perkin-Elmer EnVision, several washing steps were eliminated, and the cell number per well was reduced without impacting the robustness of the assay. The automated assay was first tested with a validation set of 2,240 compounds. These compounds were tested in duplicate with in-plate neutral (DMSO) and positive (1 μM BLT-1) controls. Robustness, reproducibility, and variability parameters were analyzed before initiating the full HTS. The HTS was run over the course of several weeks. Data were normalized relative to controls, and plate patterns were corrected using a multiplicative algorithm in Genedata Screener Assay Analyzer. For each compound, the average of the two replicates was determined and used for subsequent analysis.
# [2] = Solubility in PBS; type: physicochemical; details: PBS pH 7.4, 23° C., 1% DMSO
# Protocol: We noticed that the concentration of the probe fluctuated through the course of the assay (data not shown). We believe that this fluctuation is due to the low kinetic solubility of the probe. Thus, we decided to determine the amount of undissolved probe present in the well after it was treated with PBS for a given length of time, relative to the amount of undissolved probe at the start of the assay. The wells were centrifuged and the supernatant was removed after various time points, then acetonitrile was added to dissolve the remaining solid in the wells, and the amount of probe was quantified. […] The stability of the probe was confirmed by measuring stability in human plasma, with >99% remaining after a 5-hour incubation period. […] FIG. 5 summarizes known properties of the probe.
# [3] = test system: ldlA[mSR-BI] cells; assay: Cell cytotoxicity assay (CellTiter-Glo)
# Protocol: It is possible that a compound will cause cells to decrease HDL-mediated DiI uptake due to nonspecific consequences of cellular toxicity, representing a second class of false positive hits. The cells were treated with compounds for 3 hours or 24 hours, and then cell viability was measured using the CellTiter-Glo Assay (Promega), a luciferase-based reagent that measures cellular ATP levels. The compounds were tested at different concentrations to determine IC50 values. […] Data were normalized against DMSO and the positive control (1 μM BLT-1) in Genedata Assay Analyzer.
# All available dry powder samples of the remaining, non-quenching compounds were procured from commercial sources and purities were determined. The compounds obtained were then retested in the primary assay and in cytotoxicity assays. We wanted to rule out any compounds that were cytotoxic, especially in the 3-hour time span of the primary DiI-HDL uptake assay. Therefore, compounds were tested in ldl[mSR-BI] cells for cytotoxicity at 3 hours and 24 hours using the CellTiter-Glo assay (Promega) that measures cellular ATP as a marker of cell viability. […] Compounds were screened for inhibition of endocytosis using labeled transferrin, which is known to bind the transferrin receptor, enter cells by clathrin-mediated endocytosis, and move to endosomes before being recycled to the cell surface.
# [4] = molecular target: T2, SR-BI (Mus musculus, UniProt Q61009); assay: HDL binding assay (Alexa 488 HDL); type: cell-based, murine; parameters: expressed in transfected cells; host or cells: ldlA[mSR-BI], Chinese hamster ovary (CHO) cells lacking LDL receptor (Krieger Laboratory); details: Alexa Fluor 488-labeled HDL
# T2 sequence (Q61009 1-509): T1 sequence (Q61009 1-509)
# Protocol: HDL binding was assessed using Alexa Fluor 488-labeled HDL particles. For this assay, the Alexa 488 dye was directly covalently bound to apolipoprotein components of the HDL particle via primary amines; thus, no transfer of the fluorophore to cell membranes occurs. Instead, direct binding of the HDL particles to SR-BI can be measured. As a positive control, BLT-1, which is known to increase binding, was used at 1 μM. It is possible that a compound can reduce binding of HDL to the receptor, and this would lead to a decrease in signal. This assay is used to characterize the mechanism of action of a particular compound; therefore, any outcome in the assay is acceptable. Data were normalized against DMSO and the positive control (1 μM BLT-1) in Genedata Assay Analyzer.
# [5] = test system: endocytosis of transferrin; assay: Transferrin endocytosis assay; type: cell-based, Chinese hamster; details: concentrations up to 35 μM
# Excerpt: Transferrin Endocytosis Assay (SA 3: AID No. 602134)
# This assay measures the endocytosis of an independent ligand, transferrin, which is not taken up via SR-BI but by clathrin-mediated endocytosis; thus providing a measure of the selectivity of the inhibitors. Alexa-594-labeled transferrin is taken into the cell via endocytosis and localization of labeled transferrin can be quantitated in the various intracellular compartments. […] Inhibitors of interest should act selectively at SR-BI and should have no activity in this assay.
# Cells were pre-treated with compound for 3 hours and then treated with the Alexa-594 transferrin reagent for 30 minutes (Catalog No. T-13343; Invitrogen) in serum-free media. Plates of cells were then placed onto ice, washed with ice cold PBS, and then fixed with 4% paraformaldehyde. In addition, the nuclei were stained with 300 nM 4′,6-diamidino-2-phenylindole (DAPI) (Catalog No. 21490; Invitrogen). The cells were imaged with the Molecular Devices IXM microscope. Translocation measurements were performed using MetaExpress software and normalized for cell number.
# [6] = mice; cited from earlier work
# [7] = hamsters; cited from earlier work
# [8] = molecular target: T2, SR-BI; details: cited from earlier work
# [9] = test system: hepatitis C virus (HCV); assay: In vitro testing with Huh-7.5 cells infected with HCV; type: cell-based; details: for inhibition of HCV replication (in words): Huh-7.5 cells infected with Jcl 378-1 TagRFP (MOI=0.1), 3 dpi
# Protocol: A series of tests were conducted using the compound of Formula II (CID53393835/ML279), other known inhibitors of SR-BI and controls with cells infected with hepatitis C virus (HCV). The cells (Huh-7.5 cells infected with Jcl 378-1 TagRFP (MOI=0.1) 3 dpi) were treated with the following SR-BI compounds and controls:
# Three different infection protocols were followed: (1) no wash—virus inoculum was removed 4hpi and fresh medium containing compounds added without washing cells; (2) 5× wash—virus inoculum was removed 4hpi, cells were washed 5× with PBS and fresh medium containing compounds added; and (3) no wash Opt—infection were performed in serum-free OptiMem; virus inoculum was removed 4hpi and fresh medium containing compounds added without washing cells. FIG. 90 provides a comparison of the three different infection set-ups. FIG. 91 provides a comparison of two independent experiments.
# [10] = test system: HCVcc and HCVpp; details: primary human hepatocytes and/or human hepatoma cell lines; cited from earlier work
compound,measurement,setting,value
"COCC(=O)N1CCc2cc(-c3csc(NC(=O)c4cc(OC)cc(OC)c4)n3)ccc21 [ML278, reference compound]",IC50,[1],0.93 nM
"COc1ccc(-c2nnn(CC(=O)N(C3CCCCC3)C(C)C(=O)NC3CCCC3)n2)cc1OC (centres unmarked) [MLS000888573, reference compound]",solubility,[2],114 µM
same,IC50,"[3]; read-out: 3 h CellTiter-Glo IC50, 3 hours treatment",> 35000 nM
same,IC50,"[3]; read-out: 24 h CellTiter-Glo cytotoxicity IC50, 24 hours treatment",> 35000 nM
same,IC50,[1],51 nM
same,IC50,[1]; listed as hit compound,58 nM
same,AC50,[4],600 nM
same,endocytosis of transferrin (in words),[5],not grossly perturbing cellular membrane trafficking pathways
CC(C)(C)OC(=O)N1CCN(c2ccc(NC(=O)c3cc([N+](=O)[O-])ccc3Cl)cc2)CC1 [R-138329],HDL-cholesterol (in words),[6],increased HDL-cholesterol
same,HDL-cholesterol (in words),[7],increased HDL-cholesterol
COc1ccc(Cl)cc1C(=O)NCCc1ccc(S(=O)(=O)NC(=O)NC2CCCCC2)cc1 [glyburide],cholesterol efflux inhibition (in words),[8],relatively weak inhibitor of cholesterol efflux
C[C@@H](C(=O)NC1CCCC1)N(C(=O)Cn1nnc(-c2ccc3c(c2)OCO3)n1)C1CCCCC1 [(S)-isomer],IC50,[1],1600 nM
COc1c(NC(=O)C(=O)c2ccc(OCCN3CCOCC3)c3ccccc23)cc(C(C)(C)C)cc1NS(C)(=O)=O [ITX-5061],inhibition of HCV replication (in words),[9]; listed as 9,able to inhibit HCV replication
same,inhibition of HCV replication (in words),[9]; listed as SRB1-9,inhibited viral replication
same,mean fluorescence intensity (MFI) of HCV positive cells (in words),[9]; dose dependence,this increase was not seen
same,IC50,[1],254 nM
same,HCVcc and HCVpp infection (in words),[10],inhibit HCVcc and HCVpp infection
